Data published in patent US9730944B2, “Antiviral activity of novel bicyclic heterocycles” (priority 2010, dated 2017).
Converted amounts (≈) assume the structure as drawn.

Assays:
hRV-86 = test: Rhinovirus type 86 antiviral assay in Hela Rh cells, MTS readout; format: cell-based, Human rhinovirus; details: Human rhinovirus sp., HRV86, HeLa Rh, Hela Rh cells; read-out: hRV-86 EC50
hRV-9 = test: Rhinovirus type 9 antiviral assay in Hela Rh cells, MTS readout; format: cell-based, Human rhinovirus; details: Human rhinovirus sp., HRV9, HeLa Rh, Hela Rh cells; read-out: hRV-9 EC50
hRV-42 = test: Rhinovirus type 42 antiviral assay in Hela Rh cells, MTS readout; format: cell-based, Human rhinovirus; details: Human rhinovirus sp., HRV42, HeLa Rh, Hela Rh cells; read-out: hRV-42 EC50
hRV-29 = test: Rhinovirus type 29 antiviral assay in Hela Rh cells, MTS readout; format: cell-based; details: Human rhinovirus sp., HRV29, HeLa Rh, Hela Rh cells; read-out: hRV-29 EC50
hRV-72 = test: Rhinovirus type 72 antiviral assay in Hela Rh cells, MTS readout; format: cell-based, Human rhinovirus; details: Human rhinovirus sp., HRV72, HeLa Rh, Hela Rh cells; read-out: hRV-72 EC50
hRV-14 = test: Rhinovirus type 14 antiviral assay in Hela Rh cells, MTS readout; format: cell-based, Human rhinovirus; details: Rhinovirus B, HRV14, HeLa Rh, Hela Rh cells; read-out: hRV-14 EC50
hRV-15 = test: Rhinovirus type 15 antiviral assay in Hela Rh cells, MTS readout; format: cell-based, Human rhinovirus; details: Human rhinovirus sp., HRV15, HeLa Rh, Hela Rh cells; read-out: hRV-15 EC50
[1] = Cytostatic/cytotoxic effect in Hela Rh cells (rhinovirus methodology, MTS); details: human, CC50, Hela Rh cells
hRV-39 = test: Rhinovirus type 39 antiviral assay in Hela Rh cells, MTS readout; format: cell-based, Human rhinovirus; details: Human rhinovirus sp., HRV39, HeLa Rh, Hela Rh cells; read-out: hRV-39 EC50
hRV-41 = test: Rhinovirus type 41 antiviral assay in Hela Rh cells, MTS readout; format: cell-based, Human rhinovirus; details: Human rhinovirus sp., HRV41, HeLa Rh, Hela Rh cells; read-out: hRV-41 EC50
hRV-63 = test: Rhinovirus type 63 antiviral assay in Hela Rh cells, MTS readout; format: cell-based, Human rhinovirus; details: Human rhinovirus sp., HRV63, HeLa Rh, Hela Rh cells; read-out: hRV-63 EC50
hRV-45 = test: Rhinovirus type 45 antiviral assay in Hela Rh cells, MTS readout; format: cell-based, Human rhinovirus; details: Human rhinovirus sp., HRV45, HeLa Rh, Hela Rh cells; read-out: hRV-45 EC50
hRV-2 = test: Rhinovirus type 2 antiviral assay in Hela Rh cells, MTS readout; format: cell-based, Human rhinovirus; details: Rhinovirus A, HRV2, HeLa Rh, Hela Rh cells; read-out: hRV-2 EC50
hRV-70 = test: Rhinovirus type 70 antiviral assay in Hela Rh cells, MTS readout; format: cell-based, Human rhinovirus; details: Human rhinovirus sp., HRV70, HeLa Rh, Hela Rh cells; read-out: hRV-70 EC50
hRV-85 = test: Rhinovirus type 85 antiviral assay in Hela Rh cells, MTS readout; format: cell-based, Human rhinovirus; details: Human rhinovirus sp., HRV85, HeLa Rh, Hela Rh cells; read-out: hRV-85 EC50

Compound	EC50 (hRV-86) [µg/mL]	EC50 (hRV-9) [µg/mL]	EC50 (hRV-42) [µg/mL]	EC50 (hRV-29) [µg/mL]	EC50 (hRV-72) [µg/mL]	EC50 (hRV-14) [µg/mL]	EC50 (hRV-15) [µg/mL]	CC50 [1] [µg/mL]	EC50 (hRV-39) [µg/mL]	EC50 (hRV-41) [µg/mL]	EC50 (hRV-63) [µg/mL]	EC50 (hRV-45) [µg/mL]	EC50 (hRV-2) [µg/mL]	EC50 (hRV-70) [µg/mL]	EC50 (hRV-85) [µg/mL]
Nc1nc(N2CCN(C(=O)COc3ccc(Cl)cc3)CC2)c2nc(CCCc3ccc(F)cc3)sc2n1 [Example 290, 1-(4-(5-amino-2-(3-(4-fluorophenyl)propyl)thiazolo[5,4-d]pyrimidin-7-yl)piperazin-1-yl)-2-(4-chlorophenoxy)ethanone]	> 50	> 50	> 50	> 50	> 50	> 50	> 50	> 50	> 50	> 50	> 50	> 50	49.2 (≈ 91 µM)	> 50	19.4 (≈ 35.8 µM)
Nc1nc(N2CCN(C(=O)COc3ccc(F)cc3)CC2)c2nc(-c3ccc(F)cc3)sc2n1 [Example 233, 1-(4-(5-amino-2-(4-fluorophenyl)thiazolo[5,4-d]pyrimidin-7-yl)piperazin-1-yl)-2-(4-fluorophenoxy)ethanone]	< 0.39	< 0.02	< 0.39	< 0.02	0.88 (≈ 1.82 µM)	< 0.02	< 0.02	> 50	< 0.02	< 0.39	< 0.39	< 0.39	< 0.02	< 0.39	< 0.39
Nc1nc(N2CCN(C(=O)COc3ccc(O)cc3)CC2)c2nc(CCc3ccc(F)cc3)sc2n1 [Example 224, 1-(4-(5-amino-2-(4-fluorophenethyl)thiazolo[5,4-d]pyrimidin-7-yl)piperazin-1-yl)-2-(4-hydroxyphenoxy)ethanone]	20 (≈ 39.4 µM)	0.89 (≈ 1.75 µM)	> 50	0.49 (≈ 0.963 µM)	> 50	3.44 (≈ 6.76 µM)	2.32 (≈ 4.56 µM)	> 50	0.32 (≈ 0.629 µM)	2.26 (≈ 4.44 µM)	25.4 (≈ 49.8 µM)	4.55 (≈ 8.95 µM)	0.66 (≈ 1.3 µM)	8.62 (≈ 16.9 µM)	2.09 (≈ 4.11 µM)
CC(C)(C)OC(=O)N[C@@H]1CCN(c2nc(N)nc3sc(-c4ccc(F)cc4)cc23)C1 [Example 338, (R)-tert-butyl 1-(2-amino-6-(4-fluorophenyl)thieno[2,3-d]pyrimidin-4-yl)pyrrolidin-3-ylcarbamate]	2.37 (≈ 5.52 µM)	0.78 (≈ 1.82 µM)	5.65 (≈ 13.2 µM)	0.39 (≈ 0.908 µM)	4.96 (≈ 11.5 µM)	1.11 (≈ 2.58 µM)	1.52 (≈ 3.54 µM)	> 50	0.38 (≈ 0.885 µM)	27.4 (≈ 63.7 µM)	8.43 (≈ 19.6 µM)	4.23 (≈ 9.85 µM)	0.37 (≈ 0.861 µM)	3.65 (≈ 8.5 µM)	2.17 (≈ 5.05 µM)
Cc1ccc(CCc2nc3c(N4CCN(C(=O)COc5ccc(Br)cc5)CC4)nc(N)nc3s2)cc1 [Example 258, 1-(4-(5-amino-2-(4-methylphenethyl)thiazolo[5,4-d]pyrimidin-7-yl)piperazin-1-yl)-2-(4-bromophenoxy)ethanone]	> 50	> 50	> 50	> 50	> 50	> 50	> 50	46.2 (≈ 81.5 µM)	13 (≈ 22.9 µM)	> 50	34 (≈ 60 µM)	35.4 (≈ 62.3 µM)	9.58 (≈ 16.9 µM)	> 50	8.33 (≈ 14.7 µM)
